# Assay results: article PMC8699473, “An Easily Expandable Multi-Drug LC-MS Assay for the Simultaneous Quantification of 57 Oral Antitumor Drugs in Human Plasma” (Cancers, 2021)
# What was measured:
# [1] = Short-term stability in spiked pooled human plasma (bench-top, 4 °C, 56 °C)
# [2] = Long-term stability in spiked pooled human plasma
# [3] = set-up: method as in supplement references [1-55] as printed per drug; conditions: minimum steady-state blood plasma concentration after multiple dose administration; ref supplement references [1-55] per drug; cited from earlier work
# [4] = Freeze-thaw stability in spiked pooled human plasma; assay type: physicochemical
# [5] = Autosampler stability of ready for injection samples; assay type: physicochemical, human
smiles,measurement,setting,value
Cc1c(C(=O)Nc2ccc(N3C[C@@H](C)O[C@@H](C)C3)nc2)cccc1-c1ccc(OC(F)(F)F)cc1 [Sonidegib],"Short-time stability (1h, 56°C) Accuracy [%]",[1]; validation standard 2xLLOV,47.0%
same,"Short-time stability (24h, 4°C, without daylight) Accuracy [%]",[1]; validation standard 2xLLOV,99.1%
same,"Short-time stability (24h, RT, with daylight) Accuracy [%]",[1]; validation standard 2xLLOV,95.7%
same,"Short-time stability (24h, RT, without daylight) Accuracy [%]",[1]; validation standard 2xLLOV,91.1%
same,"Short-time stability (1h, 56°C) Accuracy [%]",[1]; validation standard LLOV,38.1%
same,"Short-time stability (24h, 4°C, without daylight) Accuracy [%]",[1]; validation standard LLOV,96.4%
same,"Short-time stability (24h, RT, with daylight) Accuracy [%]",[1]; validation standard LLOV,96.2%
same,"Short-time stability (24h, RT, without daylight) Accuracy [%]",[1]; validation standard LLOV,86.1%
same,"Short-time stability (1h, 56°C) Accuracy [%]",[1]; validation standard MOV,44.9%
same,"Short-time stability (24h, 4°C, without daylight) Accuracy [%]",[1]; validation standard MOV,98.4%
same,"Short-time stability (24h, RT, with daylight) Accuracy [%]",[1]; validation standard MOV,92.2%
same,"Short-time stability (24h, RT, without daylight) Accuracy [%]",[1]; validation standard MOV,94.7%
same,"Short-time stability (1h, 56°C) Accuracy [%]",[1]; validation standard ULOV,40.1%
same,"Short-time stability (24h, 4°C, without daylight) Accuracy [%]",[1]; validation standard ULOV,96.7%
same,"Short-time stability (24h, RT, with daylight) Accuracy [%]",[1]; validation standard ULOV,92.9%
same,"Short-time stability (24h, RT, without daylight) Accuracy [%]",[1]; validation standard ULOV,91.4%
same,"Long-term stability, 1 month, -20°C Accuracy [%]",[2]; validation standard 2xLLOV,106.2%
same,"Long-term stability, 1 month, -80°C Accuracy [%]",[2]; validation standard 2xLLOV,108.9%
same,"Long-term stability, 2 month, -20°C Accuracy [%]",[2]; validation standard 2xLLOV,111.0%
same,"Long-term stability, 2 month, -80°C Accuracy [%]",[2]; validation standard 2xLLOV,107.0%
same,"Long-term stability, 3 month, -20°C Accuracy [%]",[2]; validation standard 2xLLOV,96.1%
same,"Long-term stability, 3 month, -80°C Accuracy [%]",[2]; validation standard 2xLLOV,104.6%
same,"Long-term stability, 6 weeks, 4°C, without daylight Accuracy [%]",[2]; validation standard 2xLLOV,91.2%
same,"Long-term stability, 1 month, -20°C Accuracy [%]",[2]; validation standard LLOV,109.9%
same,"Long-term stability, 1 month, -80°C Accuracy [%]",[2]; validation standard LLOV,108.6%
same,"Long-term stability, 2 month, -20°C Accuracy [%]",[2]; validation standard LLOV,105.8%
same,"Long-term stability, 2 month, -80°C Accuracy [%]",[2]; validation standard LLOV,104.4%
same,"Long-term stability, 3 month, -20°C Accuracy [%]",[2]; validation standard LLOV,103.1%
same,"Long-term stability, 3 month, -80°C Accuracy [%]",[2]; validation standard LLOV,109.9%
same,"Long-term stability, 6 weeks, 4°C, without daylight Accuracy [%]",[2]; validation standard LLOV,89.3%
same,"Long-term stability, 1 month, -20°C Accuracy [%]",[2]; validation standard MOV,104.9%
same,"Long-term stability, 1 month, -80°C Accuracy [%]",[2]; validation standard MOV,108.0%
same,"Long-term stability, 2 month, -20°C Accuracy [%]",[2]; validation standard MOV,114.5%
same,"Long-term stability, 2 month, -80°C Accuracy [%]",[2]; validation standard MOV,119.3%
same,"Long-term stability, 3 month, -20°C Accuracy [%]",[2]; validation standard MOV,95.1%
same,"Long-term stability, 3 month, -80°C Accuracy [%]",[2]; validation standard MOV,99.2%
same,"Long-term stability, 6 weeks, 4°C, without daylight Accuracy [%]",[2]; validation standard MOV,106.1%
same,"Long-term stability, 1 month, -20°C Accuracy [%]",[2]; validation standard ULOV,106.5%
same,"Long-term stability, 1 month, -80°C Accuracy [%]",[2]; validation standard ULOV,105.4%
same,"Long-term stability, 2 month, -20°C Accuracy [%]",[2]; validation standard ULOV,122.3%
same,"Long-term stability, 2 month, -80°C Accuracy [%]",[2]; validation standard ULOV,122.3%
same,"Long-term stability, 3 month, -20°C Accuracy [%]",[2]; validation standard ULOV,89.3%
same,"Long-term stability, 3 month, -80°C Accuracy [%]",[2]; validation standard ULOV,100.0%
same,"Long-term stability, 6 weeks, 4°C, without daylight Accuracy [%]",[2]; validation standard ULOV,100.7%
same,cmin,[3],890 ng/mL
same,Freeze-Thaw Accuracy [%],[4]; validation standard 2xLLOV,97.9%
same,Freeze-Thaw Accuracy [%],[4]; validation standard LLOV,103.7%
same,Freeze-Thaw Accuracy [%],[4]; validation standard MOV,96.5%
same,Freeze-Thaw Accuracy [%],[4]; validation standard ULOV,99.0%
same,"Autosampler (24h, 4°C) Accuracy [%]",[5]; validation standard 2xLLOV,101.5%
same,"Autosampler (72h, 4°C) Accuracy [%]",[5]; validation standard 2xLLOV,101.9%
same,"Autosampler (24h, 4°C) Accuracy [%]",[5]; validation standard LLOV,109.3%
same,"Autosampler (72h, 4°C) Accuracy [%]",[5]; validation standard LLOV,100.0%
same,"Autosampler (24h, 4°C) Accuracy [%]",[5]; validation standard MOV,99.4%
same,"Autosampler (72h, 4°C) Accuracy [%]",[5]; validation standard MOV,101.1%
same,"Autosampler (24h, 4°C) Accuracy [%]",[5]; validation standard ULOV,101.3%
same,"Autosampler (72h, 4°C) Accuracy [%]",[5]; validation standard ULOV,98.1%
CCOc1cc2ncc(C#N)c(Nc3ccc(OCc4ccccn4)c(Cl)c3)c2cc1NC(=O)/C=C/CN(C)C [Neratinib],"Short-time stability (1h, 56°C) Accuracy [%]",[1]; validation standard 2xLLOV,-7.9%
same,"Short-time stability (24h, 4°C, without daylight) Accuracy [%]",[1]; validation standard 2xLLOV,79.9%
same,"Short-time stability (24h, RT, with daylight) Accuracy [%]",[1]; validation standard 2xLLOV,23.2%
same,"Short-time stability (24h, RT, without daylight) Accuracy [%]",[1]; validation standard 2xLLOV,25.4%
same,"Short-time stability (1h, 56°C) Accuracy [%]",[1]; validation standard LLOV,-88.6%
same,"Short-time stability (24h, 4°C, without daylight) Accuracy [%]",[1]; validation standard LLOV,65.9%
same,"Short-time stability (24h, RT, with daylight) Accuracy [%]",[1]; validation standard LLOV,-37.5%
same,"Short-time stability (24h, RT, without daylight) Accuracy [%]",[1]; validation standard LLOV,-39.1%
same,"Short-time stability (1h, 56°C) Accuracy [%]",[1]; validation standard MOV,26.0%
same,"Short-time stability (24h, 4°C, without daylight) Accuracy [%]",[1]; validation standard MOV,89.7%
same,"Short-time stability (24h, RT, with daylight) Accuracy [%]",[1]; validation standard MOV,37.9%
same,"Short-time stability (24h, RT, without daylight) Accuracy [%]",[1]; validation standard MOV,39.2%
same,"Short-time stability (1h, 56°C) Accuracy [%]",[1]; validation standard ULOV,21.9%
same,"Short-time stability (24h, 4°C, without daylight) Accuracy [%]",[1]; validation standard ULOV,81.3%
same,"Short-time stability (24h, RT, with daylight) Accuracy [%]",[1]; validation standard ULOV,28.5%
same,"Short-time stability (24h, RT, without daylight) Accuracy [%]",[1]; validation standard ULOV,31.5%
same,"Long-term stability, 1 month, -20°C Accuracy [%]",[2]; validation standard 2xLLOV,79.9%
same,"Long-term stability, 1 month, -80°C Accuracy [%]",[2]; validation standard 2xLLOV,84.9%
same,"Long-term stability, 2 month, -20°C Accuracy [%]",[2]; validation standard 2xLLOV,67.5%
same,"Long-term stability, 2 month, -80°C Accuracy [%]",[2]; validation standard 2xLLOV,94.6%
same,"Long-term stability, 3 month, -20°C Accuracy [%]",[2]; validation standard 2xLLOV,70.3%
same,"Long-term stability, 3 month, -80°C Accuracy [%]",[2]; validation standard 2xLLOV,90.2%
same,"Long-term stability, 6 weeks, 4°C, without daylight Accuracy [%]",[2]; validation standard 2xLLOV,7.4%
same,"Long-term stability, 1 month, -20°C Accuracy [%]",[2]; validation standard LLOV,66.9%
same,"Long-term stability, 1 month, -80°C Accuracy [%]",[2]; validation standard LLOV,71.8%
same,"Long-term stability, 2 month, -20°C Accuracy [%]",[2]; validation standard LLOV,77.1%
same,"Long-term stability, 2 month, -80°C Accuracy [%]",[2]; validation standard LLOV,88.3%
same,"Long-term stability, 3 month, -20°C Accuracy [%]",[2]; validation standard LLOV,50.3%
same,"Long-term stability, 3 month, -80°C Accuracy [%]",[2]; validation standard LLOV,81.4%
same,"Long-term stability, 1 month, -20°C Accuracy [%]",[2]; validation standard MOV,82.9%
same,"Long-term stability, 1 month, -80°C Accuracy [%]",[2]; validation standard MOV,84.6%
same,"Long-term stability, 2 month, -20°C Accuracy [%]",[2]; validation standard MOV,81.2%
same,"Long-term stability, 2 month, -80°C Accuracy [%]",[2]; validation standard MOV,92.9%
same,"Long-term stability, 3 month, -20°C Accuracy [%]",[2]; validation standard MOV,79.5%
same,"Long-term stability, 3 month, -80°C Accuracy [%]",[2]; validation standard MOV,92.5%
same,"Long-term stability, 6 weeks, 4°C, without daylight Accuracy [%]",[2]; validation standard MOV,10.0%
same,"Long-term stability, 1 month, -20°C Accuracy [%]",[2]; validation standard ULOV,79.7%
same,"Long-term stability, 1 month, -80°C Accuracy [%]",[2]; validation standard ULOV,78.2%
same,"Long-term stability, 2 month, -20°C Accuracy [%]",[2]; validation standard ULOV,82.8%
same,"Long-term stability, 2 month, -80°C Accuracy [%]",[2]; validation standard ULOV,88.3%
same,"Long-term stability, 3 month, -20°C Accuracy [%]",[2]; validation standard ULOV,75.5%
same,"Long-term stability, 3 month, -80°C Accuracy [%]",[2]; validation standard ULOV,91.8%
same,"Long-term stability, 6 weeks, 4°C, without daylight Accuracy [%]",[2]; validation standard ULOV,8.5%
same,cmin,[3],52.6 ng/mL
same,Freeze-Thaw Accuracy [%],[4]; validation standard 2xLLOV,82.2%
same,Freeze-Thaw Accuracy [%],[4]; validation standard LLOV,64.7%
same,Freeze-Thaw Accuracy [%],[4]; validation standard MOV,88.9%
same,Freeze-Thaw Accuracy [%],[4]; validation standard ULOV,87.2%
same,"Autosampler (24h, 4°C) Accuracy [%]",[5]; validation standard 2xLLOV,95.7%
same,"Autosampler (72h, 4°C) Accuracy [%]",[5]; validation standard 2xLLOV,100.1%
same,"Autosampler (24h, 4°C) Accuracy [%]",[5]; validation standard LLOV,75.2%
same,"Autosampler (72h, 4°C) Accuracy [%]",[5]; validation standard LLOV,73.8%
same,"Autosampler (24h, 4°C) Accuracy [%]",[5]; validation standard MOV,103.1%
same,"Autosampler (72h, 4°C) Accuracy [%]",[5]; validation standard MOV,100.5%
same,"Autosampler (24h, 4°C) Accuracy [%]",[5]; validation standard ULOV,93.3%
same,"Autosampler (72h, 4°C) Accuracy [%]",[5]; validation standard ULOV,96.0%
CC[C@H](Nc1ncnc2[nH]cnc12)c1nc2cccc(F)c2c(=O)n1-c1ccccc1 [Idelalisib],cmin,[3],318 ng/mL
same,Freeze-Thaw Accuracy [%],[4]; validation standard 2xLLOV,98.2%
same,Freeze-Thaw Accuracy [%],[4]; validation standard LLOV,110.6%
same,Freeze-Thaw Accuracy [%],[4]; validation standard MOV,96.5%
same,Freeze-Thaw Accuracy [%],[4]; validation standard ULOV,101.5%
same,"Autosampler (24h, 4°C) Accuracy [%]",[5]; validation standard 2xLLOV,103.2%
same,"Autosampler (72h, 4°C) Accuracy [%]",[5]; validation standard 2xLLOV,98.6%
same,"Autosampler (24h, 4°C) Accuracy [%]",[5]; validation standard LLOV,109.4%
same,"Autosampler (72h, 4°C) Accuracy [%]",[5]; validation standard LLOV,109.4%
same,"Autosampler (24h, 4°C) Accuracy [%]",[5]; validation standard MOV,102.6%
same,"Autosampler (72h, 4°C) Accuracy [%]",[5]; validation standard MOV,97.1%
same,"Autosampler (24h, 4°C) Accuracy [%]",[5]; validation standard ULOV,103.9%
same,"Autosampler (72h, 4°C) Accuracy [%]",[5]; validation standard ULOV,101.4%
